Laboratory results from patent US20250257075A1, “MACROCYCLIC INHIBITORS OF KRAS FOR THE TREATMENT OF CANCER” (Hoffmann-La Roche Inc., priority 2022, published 2025).

Legend:
[1] = system: phosphorylation of ERK, KRAS G12C in NCI-H358 cells; experiment: pERK inhibition assay, G12C; type: cell-based, human; details: Homo sapiens; NCI-H358, 4 hours of incubation
Experimental: (§1) This assay is to measure the ability of test compounds in inhibiting the phosphorylation of ERK, the downstream signaling of KRAS G12C in NCI-H358 cells, KRAS G12D in AGS cells, and KRAS G12V in SW620. NCI-H358 (ATCC-CRL5807) cells, AGS (ATCC-CRL-1739) cells, SW620 (ATCC-CCL-227) cells were all grown and maintained using RPMI-1640 medium (Thermo Fisher Scientific) with 10% fetal bovine serum and 1% penicillin/streptomycin. On the day prior to compound addition, cells were plated in tissue culture-treated 96 well plates (Corning-3699) at a density of 30,000 cell/well, 20,000 cell/well, 30,000 cell/well for NCI-H358, AGS and SW620 respectively, and allowed for attachment overnight. Diluted compounds were then added in a final concentration of 0.5% DMSO. After 4 hours of incubation, the medium was removed, 100 μL of 4% formaldehyde was added, and the assay plates were incubated at room temperature for 20 minutes. The plates were then washed once with phosphate buffered saline (PBS), and permeabilized with 100 μL of chilled methanol for 10 minutes. Non-specific antibody binding to the plates was blocked using 50 μL 1×BSA blocking buffer (Thermo-37520, 10-fold dilution by Phosphate-Buffered Saline Tween (PBST) for at least 1 hour at room temperature.
(§2) The amount of phosphor-ERK was determined using an antibody specific for phosphorylated form of ERK. Primary antibody (pERK, CST-4370, Cell Signaling Technology) was diluted 1:300 in blocking buffer, with 50 μL aliquoted to each well, and incubated overnight at 4° C. Cells was washed five times for 5 minutes with PBST. Secondary antibody (HRP-linked anti-rabbit IgG, CST-7074, Cell Signaling Technology) was diluted 1:1000 in blocking buffer, and 50 μL was added to each well and incubated 1-2 hrs at room temperature. Cells was washed 5 times for 5 minutes with PBST, 100 μL TMB ELISA substrate (abcam-ab171523) were added and gently shake for 20 minutes. 50 μL stop solution (abcam-ab171529) were added, and then read the signal (OD450) by EnVision.
(§3) IC50 was determined by fitting a 4-parameter sigmoidal concentration response model.

[2] = system: phosphorylation of ERK, KRAS G12D in AGS cells; experiment: pERK inhibition assay, G12D; type: cell-based, human; details: Homo sapiens, 4 hours of incubation
Experimental: as §1, §2, §3

[3] = system: phosphorylation of ERK, KRAS G12V in SW620; experiment: pERK inhibition assay, G12V; type: cell-based, human; details: Homo sapiens, SW-620; SW620, 4 hours of incubation
Experimental: as §1, §2, §3

[4] = system: NCI-H358 cells (KRAS G12C); experiment: Cell viability assay, G12C; type: cell-based, human; details: Homo sapiens; NCI-H358, 72 hrs, Cell Counting Kit-8
Experimental: (§4) The purpose of this cellular assay was to determine the effects of test compounds on the proliferation of human cancer cell lines NCI-H358 (ATCC-CRL5807) cells, AGS (ATCC-CRL-1739) cells, SW620 (ATCC-CCL-227) over a 3-day treatment period by quantifying the amount of NADPH present at endpoint using Cell Counting Kit-8.
(§5) Cells were seeded at 5,000 cells/well (NCI-H358), 2,000 cells/well (AGS) 2,000 cells/well (SW620) in 96-well assay plates (Corning-3699) and incubated overnight. On the day of the assay, diluted compounds were then added in a final concentration of 0.5% DMSO. After 72 hrs incubation, a tenth of the volume of cell counting kit 8 (Dnjindo-CK04) was added into each well. Read the signal (OD450 minus OD650) using EnVision after 2 hrs incubation. IC50 was determined by fitting a 4-parameter sigmoidal concentration response model.

AGS cells (KRAS G12D) = experiment: Cell viability assay, G12D; type: cell-based, human; details: Homo sapiens, 72 hrs, Cell Counting Kit-8
Experimental: as §4, §5

SW620 cells (KRAS G12V) = experiment: Cell viability assay, G12V; type: cell-based, human; details: Homo sapiens, SW-620; SW620, 72 hrs, Cell Counting Kit-8
Experimental: as §4, §5

KRAS G12C-BRAF complex = target: T1, KRAS G12C-BRAF complex (Homo sapiens, UniProt P01116+P62937, G12C); experiment: KRAS G12C-BRAF NanoBit assay in HEK293 cells; type: cell-based; details: HEK293 stable cell pool, 3 hours of incubation
T1 construct: expressed in transfected cells
Experimental: This assay is to measure the ability of tested compounds in disruption of the KRAS G12C-BRAF complex at the cellular level, we established the NanoBit cellular assay in mammalian HEK293 (ATCC) cells. HEK293 cells were grown and maintained using DMEM medium (Thermo Fisher Scientific) with 10% fetal bovine serum and 1% penicillin/streptomycin. Both KRAS G12C and BRAF RBD were cloned into the NanoBit vectors ([…] vectors system, Promega) with the orientations SmBit-KRAS G12C and BRAF RBD-LgBit, respectively, and co-transfected into HEK293 cells. Cells were then selected with 100 μg/mL Hygromycin B (10687010, Thermo Fisher) and Blasticidin (5 μg/mL) for 4 weeks to get the stable cell pool. On the day of the assay, 75 nL of compound solution was presented in a 384-well assay plate as a 16-point 3-fold dilution starting from a final concentration of 30 μM in DMSO. Then cells were seeded at 10,000 cells/25 μL/well in a 384-well plate. After 3 hours of incubation, 6 μL of volume of Nano-Glo® Live Cell Substrate (Promega) was added into each well. Monitor luminescence using ultra384 model in Envision at 20 minutes. Compounds that facilitate disruption of the KRAS G12C-BRAF RBD complex were identified as those eliciting a decrease of luminescence relative to DMSO control wells.

T1 sequence (P01116 1-188 isoform P01116-2 G12C): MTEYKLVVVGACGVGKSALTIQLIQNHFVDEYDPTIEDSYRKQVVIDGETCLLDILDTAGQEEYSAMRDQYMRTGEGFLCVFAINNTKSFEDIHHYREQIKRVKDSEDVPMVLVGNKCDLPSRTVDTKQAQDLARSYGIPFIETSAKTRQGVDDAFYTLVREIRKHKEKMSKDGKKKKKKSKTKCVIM
T1 sequence (P62937 whole entry): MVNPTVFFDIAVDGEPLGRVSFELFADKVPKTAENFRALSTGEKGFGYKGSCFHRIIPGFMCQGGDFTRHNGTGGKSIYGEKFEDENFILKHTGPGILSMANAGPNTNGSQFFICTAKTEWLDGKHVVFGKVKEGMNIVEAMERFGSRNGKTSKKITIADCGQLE

Structure (SMILES) | IC50 [1] [µM] | IC50 [2] [µM] | IC50 [3] [µM] | IC50 [4] [µM] | IC50 (AGS cells (KRAS G12D)) [µM] | IC50 (SW620 cells (KRAS G12V)) [µM] | IC50 (KRAS G12C-BRAF complex) [µM]
CCn1c(-c2cc(N3CCN(CC(F)(F)F)CC3)cnc2[C@H](C)OC)c2c3cc(c(F)cc31)-c1csc(n1)C[C@H](NC(=O)[C@H](C(C)C)N(C)C(=O)N1CC(C#CC(F)(F)F)C1)C(=O)N1CCC[C@H](N1)C(=O)OCC(C)(C)C2 (atropisomer, axis not shown; (M)) [Example 15, N-[(1S)-1-[[(7S,13S)-21-ethyl-24-fluoro-(20M)-20-[2-[(1S)-1-methoxyethyl]-5-[4-(2,2,2-trifluoroethyl)piperazin-1-yl]-3-pyridyl]-17,17-dimethyl-8,14-dioxo-15-oxa-4-thia-9,21,27,28-tetrazapentacyclo[17.5.2.1^2,5.1^9,13.0^22,26]octacosa-1(25),2,5(28),19,22(26),23-hexaen-7-yl]carbamoyl]-2-methyl-propyl]-N-methyl-3-(3,3,3-trifluoroprop-1-ynyl)azetidine-1-carboxamide] | 0.02 | > 10 | 0.021 |  |  |  | 
CO[C@@H](C)c1ncc(N2CCN(C)CC2)cc1-c1c2c3cc(c(F)cc3n1CC(F)(F)F)-c1csc(n1)C[C@H](NC(=O)[C@H](C(C)C)N(C)C(=O)[C@H]1C[C@@H](C#Cc3nccc(C(F)(F)F)n3)C1)C(=O)N1CCC[C@H](N1)C(=O)OCC(C)(C)C2 (atropisomer, axis not shown; (M)) [Example 16, cis-N-[(1S)-1-[[(7S,13S)-24-fluoro-(20M)-20-[2-[(1S)-1-methoxyethyl]-5-(4-methylpiperazin-1-yl)-3-pyridyl]-17,17-dimethyl-8,14-dioxo-21-(2,2,2-trifluoroethyl)-15-oxa-4-thia-9,21,27,28-tetrazapentacyclo[17.5.2.1^2,5.1^9,13.0^22,26]octacosa-1(25),2,5(28),19,22(26),23-hexaen-7-yl]carbamoyl]-2-methyl-propyl]-N-methyl-3-[2-[4-(trifluoromethyl)pyrimidin-2-yl]ethynyl]cyclobutanecarboxamide] | 0.021 | > 10 | 0.031 | 0.011 | 0.743 | 0.237 | 0.209
CO[C@@H](C)c1ncc(N2CCN(CC(F)(F)F)CC2)cc1-c1c2c3cc(c(F)cc3n1CC(F)(F)F)-c1csc(n1)C[C@H](NC(=O)[C@H](C(C)C)N(C)C(=O)N1CC(C#CC(F)(F)F)C1)C(=O)N1CCC[C@H](N1)C(=O)OCC(C)(C)C2 (atropisomer, axis not shown; (M)) [Example 18, N-[(1S)-1-[[(7S,13S)-24-fluoro-(20M)-20-[2-[(1S)-1-methoxyethyl]-5-[4-(2,2,2-trifluoroethyl)piperazin-1-yl]-3-pyridyl]-17,17-dimethyl-8,14-dioxo-21-(2,2,2-trifluoroethyl)-15-oxa-4-thia-9,21,27,28-tetrazapentacyclo[17.5.2.1^2,5.1^9,13.0^22,26]octacosa-1(25),2,5(28),19,22(26),23-hexaen-7-yl]carbamoyl]-2-methyl-propyl]-N-methyl-3-(3,3,3-trifluoroprop-1-ynyl)azetidine-1-carboxamide] | 0.051 | > 10 | 0.048 | 0.006 | > 10 | > 10 | 0.24
CCn1c(-c2cc(N3CCOCC3)cnc2[C@H](C)OC)c2c3cc(c(F)cc31)-c1csc(n1)C[C@H](NC(=O)[C@H](C(C)C)N(C)C(=O)[C@H]1C[C@@H](C#Cc3nccc(C(F)(F)F)n3)C1)C(=O)N1CCC[C@H](N1)C(=O)OCC(C)(C)C2 (atropisomer, axis not shown; (M)) [Example 21, cis-N-[(1S)-1-[[(7S,13S)-21-ethyl-24-fluoro-(20M)-20-[2-[(1S)-1-methoxyethyl]-5-morpholino-3-pyridyl]-17,17-dimethyl-8,14-dioxo-15-oxa-4-thia-9,21,27,28-tetrazapentacyclo[17.5.2.1^2,5.1^9,13.0^22,26]octacosa-1(25),2,5(28),19,22(26),23-hexaen-7-yl]carbamoyl]-2-methyl-propyl]-N-methyl-3-[2-[4-(trifluoromethyl)pyrimidin-2-yl]ethynyl]cyclobutanecarboxamide] | 0.019 | > 10 | 0.076 | 0.02 | 0.231 | 0.222 | 0.085
CO[C@@H](C)c1ncc(N2CCOCC2)cc1-c1c2c3cc(c(F)cc3n1CC(F)(F)F)-c1csc(n1)C[C@H](NC(=O)[C@H](C(C)C)N(C)C(=O)[C@H]1C[C@@H](C#CC(F)(F)F)C1)C(=O)N1CCC[C@H](N1)C(=O)OCC(C)(C)C2 (atropisomer, axis not shown; (M)) [Example 22, cis-N-[(1S)-1-[[(7S,13S)-24-fluoro-(20M)-20-[2-[(1S)-1-methoxyethyl]-5-morpholino-3-pyridyl]-17,17-dimethyl-8,14-dioxo-21-(2,2,2-trifluoroethyl)-15-oxa-4-thia-9,21,27,28-tetrazapentacyclo[17.5.2.1^2,5.1^9,13.0^22,26]octacosa-1(25),2,5(28),19,22(26),23-hexaen-7-yl]carbamoyl]-2-methyl-propyl]-N-methyl-3-(3,3,3-trifluoroprop-1-ynyl)cyclobutanecarboxamide] | 0.013 | 0.172 | 0.078 | 0.012 | > 10 | 0.152 | 0.036
CCn1c(-c2cc(N3CCOCC3)cnc2[C@H](C)OC)c2c3cc(c(F)cc31)-c1csc(n1)C[C@H](NC(=O)[C@H](C(C)C)N(C)C(=O)N1CC(C#CC(F)(F)F)C1)C(=O)N1CCCC(N1)C(=O)OCC(C)(C)C2 (stereo partly drawn) [Example 20, N-[(1S)-1-[[(7S,13S)-21-ethyl-24-fluoro-(20M)-20-[2-[(1S)-1-methoxyethyl]-5-morpholino-3-pyridyl]-17,17-dimethyl-8,14-dioxo-15-oxa-4-thia-9,21,27,28-tetrazapentacyclo[17.5.2.1^2,5.1^9,13.0^22,26]octacosa-1(25),2,5(28),19,22(26),23-hexaen-7-yl]carbamoyl]-2-methyl-propyl]-N-methyl-3-(3,3,3-trifluoroprop-1-ynyl)azetidine-1-carboxamide] | 0.093 | 2.51 | 0.096 | 0.025 | > 10 | 0.119 | 0.084
